Test results taken from the NIST ThermoML archive (doi:10.1021/je049960h).

Test: xn = mol fraction of the nth substance listed
Details: 101.3 kPa, Liquid; for viscosity: Capillary tube (Ostwald / Ubbelohde) method; for mass density: Pycnometric method; for thermal conductivity: Hot wire method

OCCCOCCCO [4-oxa-1,7-heptanediol] + O
Details | mass density [kg/m3] | thermal conductivity [W/m/K] | viscosity [mPa·s]
293.4 K, x1 = 0.5 | 1034 | – | 59.9
293.9 K, x1 = 0.75 | 1028 | – | 88.5
295.05 K, x1 = 0.25 | 1040 | – | 22.3
297.8 K, x1 = 0.25 | – | 0.248 | –
297.9 K, x1 = 0.5 | – | 0.19 | –
298.4 K, x1 = 0.75 | – | 0.167 | –
313.05 K, x1 = 0.25 | 1026 | – | 9.14
313.05 K, x1 = 0.5 | 1019 | – | 18.6
313.05 K, x1 = 0.75 | 1013 | – | 25.8
323.9 K, x1 = 0.25 | – | 0.256 | –
324.8 K, x1 = 0.75 | – | 0.169 | –
324.9 K, x1 = 0.5 | – | 0.193 | –
333.1 K, x1 = 0.25 | 1010 | – | 4.3
333.1 K, x1 = 0.5 | 1003 | – | 7.68
333.1 K, x1 = 0.75 | 997 | – | 9.71
349.3 K, x1 = 0.5 | – | 0.195 | –
349.9 K, x1 = 0.25 | – | 0.26 | –
350.1 K, x1 = 0.75 | – | 0.167 | –
353.1 K, x1 = 0.25 | 992.8 | – | 2.42
353.1 K, x1 = 0.5 | 986 | – | 3.89
353.1 K, x1 = 0.75 | 980.5 | – | 4.71
368.25 K, x1 = 0.25 | 979.2 | – | 1.72
372.2 K, x1 = 0.5 | 969.5 | – | 2.33
372.2 K, x1 = 0.75 | 964.3 | – | 2.73
374 K, x1 = 0.25 | – | 0.264 | –
374.9 K, x1 = 0.5 | – | 0.196 | –
375.1 K, x1 = 0.75 | – | 0.169 | –
378.75 K, x1 = 0.25 | – | – | 1.41
382.5 K, x1 = 0.5 | 960.1 | – | 1.85
382.5 K, x1 = 0.75 | 955.2 | – | 2.14
392.3 K, x1 = 0.75 | 946.2 | – | 1.72
392.4 K, x1 = 0.5 | 951 | – | 1.53
394.25 K, x1 = 0.5 | 949.4 | – | –
395.75 K, x1 = 0.5 | – | – | 1.45
395.95 K, x1 = 0.25 | 953.1 | – | –
397.45 K, x1 = 0.25 | – | – | 0.983
398.6 K, x1 = 0.25 | – | 0.263 | –
398.9 K, x1 = 0.5 | – | 0.195 | –
399 K, x1 = 0.75 | – | 0.169 | –
402.3 K, x1 = 0.75 | 936.9 | – | 1.43
405.35 K, x1 = 0.75 | 934.5 | – | –
406.85 K, x1 = 0.75 | – | – | 1.33
407.85 K, x1 = 0.5 | 936.8 | – | –
408.35 K, x1 = 0.25 | 941.3 | – | –
410.85 K, x1 = 0.5 | – | – | 1.11
411.35 K, x1 = 0.25 | – | – | 0.803
418.35 K, x1 = 0.75 | 923 | – | –
421.35 K, x1 = 0.75 | – | – | 1.05
423.8 K, x1 = 0.25 | – | 0.264 | –
424.3 K, x1 = 0.75 | – | 0.167 | –
424.4 K, x1 = 0.5 | – | 0.193 | –
426.35 K, x1 = 0.5 | 918.8 | – | –
426.75 K, x1 = 0.25 | 922.7 | – | –
429.35 K, x1 = 0.5 | – | – | 0.829
429.75 K, x1 = 0.25 | – | – | 0.63
437.25 K, x1 = 0.75 | 904.2 | – | –
440.25 K, x1 = 0.75 | – | – | 0.795
444.65 K, x1 = 0.25 | 904.1 | – | –
445.25 K, x1 = 0.5 | 899.1 | – | –
447.65 K, x1 = 0.25 | – | – | 0.512
448.25 K, x1 = 0.5 | – | – | 0.64
448.8 K, x1 = 0.5 | – | 0.187 | –
448.9 K, x1 = 0.75 | – | 0.163 | –
455.15 K, x1 = 0.75 | 887.2 | – | –
458.15 K, x1 = 0.75 | – | – | 0.641

CC(O)CO (centres undefined) [1,2-propanediol] + O
Details | mass density [kg/m3] | thermal conductivity [W/m/K] | viscosity [mPa·s]
296.65 K, x1 = 0.25 | 1040 | – | 7.39
296.8 K, x1 = 0.75 | 1038 | – | 32.4
297.05 K, x1 = 0.5 | 1042 | – | 17.5
298.5 K, x1 = 0.75 | – | 0.212 | –
298.9 K, x1 = 0.5 | – | 0.243 | –
299.6 K, x1 = 0.25 | – | 0.322 | –
313.05 K, x1 = 0.25 | 1028 | – | 3.9
313.05 K, x1 = 0.5 | 1029 | – | 8.47
313.05 K, x1 = 0.75 | 1026 | – | 14.4
322.1 K, x1 = 0.25 | – | 0.337 | –
323.7 K, x1 = 0.75 | – | 0.214 | –
324.2 K, x1 = 0.5 | – | 0.25 | –
333.1 K, x1 = 0.25 | 1013 | – | 2.12
333.1 K, x1 = 0.5 | 1013 | – | 4.14
333.1 K, x1 = 0.75 | 1010 | – | 6.46
347.2 K, x1 = 0.25 | – | 0.348 | –
348.2 K, x1 = 0.75 | – | 0.215 | –
349.1 K, x1 = 0.5 | – | 0.254 | –
353.05 K, x1 = 0.25 | 996.5 | – | 1.32
353.05 K, x1 = 0.5 | 996.8 | – | –
353.05 K, x1 = 0.75 | 993.8 | – | 3.45
353.1 K, x1 = 0.5 | – | – | 2.36
363.3 K, x1 = 0.25 | 988 | – | 1.09
363.35 K, x1 = 0.75 | 985.1 | – | 2.66
363.4 K, x1 = 0.5 | 987.9 | – | 1.84
372.1 K, x1 = 0.25 | – | 0.353 | –
372.1 K, x1 = 0.5 | – | 0.255 | –
372.8 K, x1 = 0.75 | – | 0.215 | –
373.45 K, x1 = 0.25 | 979.3 | – | 0.915
378.35 K, x1 = 0.75 | 971.6 | – | 1.87
381.55 K, x1 = 0.25 | 971.3 | – | –
383.5 K, x1 = 0.5 | 970.3 | – | 1.22
384.15 K, x1 = 0.25 | – | – | 0.778
388.5 K, x1 = 0.75 | 963.2 | – | 1.52
390.55 K, x1 = 0.25 | 963.4 | – | –
394.55 K, x1 = 0.25 | – | – | 0.657
395.75 K, x1 = 0.5 | 958.1 | – | –
396 K, x1 = 0.75 | – | 0.214 | –
396.4 K, x1 = 0.25 | – | 0.353 | –
397.1 K, x1 = 0.5 | – | 0.255 | –
398.3 K, x1 = 0.75 | 954.2 | – | 1.27
398.75 K, x1 = 0.5 | – | – | 0.952
407.45 K, x1 = 0.5 | 947.1 | – | –
407.75 K, x1 = 0.25 | 947.5 | – | –
408.15 K, x1 = 0.75 | 944.7 | – | 1.08
411.45 K, x1 = 0.5 | – | – | 0.793
411.75 K, x1 = 0.25 | – | – | 0.525
411.75 K, x1 = 0.75 | 940.7 | – | –
420.2 K, x1 = 0.5 | – | 0.253 | –
420.4 K, x1 = 0.25 | – | 0.347 | –
420.8 K, x1 = 0.75 | – | 0.212 | –
424.55 K, x1 = 0.25 | 930.2 | – | –
424.95 K, x1 = 0.5 | 929.6 | – | –
428.15 K, x1 = 0.75 | 924.7 | – | –
428.95 K, x1 = 0.5 | – | – | 0.618
429.55 K, x1 = 0.25 | – | – | 0.426
439.95 K, x1 = 0.5 | 914.7 | – | –
440.4 K, x1 = 0.25 | – | 0.338 | –
440.8 K, x1 = 0.5 | – | 0.249 | –
441.45 K, x1 = 0.75 | 912.7 | – | –
442 K, x1 = 0.75 | – | 0.21 | –
443.95 K, x1 = 0.5 | – | – | 0.517
444.55 K, x1 = 0.25 | 908.3 | – | –
449.55 K, x1 = 0.25 | – | – | 0.344
